In patent US20240115557A1, “INHIBITORS OF RNA-GUIDED NUCLEASES AND USES THEREOF” (The Brigham and Women's Hospital, Inc., priority 2022, published 2024):

Target: T1, SaCas9 (Staphylococcus aureus, UniProt J7RUA5)
T1 sequence (J7RUA5 1-1053): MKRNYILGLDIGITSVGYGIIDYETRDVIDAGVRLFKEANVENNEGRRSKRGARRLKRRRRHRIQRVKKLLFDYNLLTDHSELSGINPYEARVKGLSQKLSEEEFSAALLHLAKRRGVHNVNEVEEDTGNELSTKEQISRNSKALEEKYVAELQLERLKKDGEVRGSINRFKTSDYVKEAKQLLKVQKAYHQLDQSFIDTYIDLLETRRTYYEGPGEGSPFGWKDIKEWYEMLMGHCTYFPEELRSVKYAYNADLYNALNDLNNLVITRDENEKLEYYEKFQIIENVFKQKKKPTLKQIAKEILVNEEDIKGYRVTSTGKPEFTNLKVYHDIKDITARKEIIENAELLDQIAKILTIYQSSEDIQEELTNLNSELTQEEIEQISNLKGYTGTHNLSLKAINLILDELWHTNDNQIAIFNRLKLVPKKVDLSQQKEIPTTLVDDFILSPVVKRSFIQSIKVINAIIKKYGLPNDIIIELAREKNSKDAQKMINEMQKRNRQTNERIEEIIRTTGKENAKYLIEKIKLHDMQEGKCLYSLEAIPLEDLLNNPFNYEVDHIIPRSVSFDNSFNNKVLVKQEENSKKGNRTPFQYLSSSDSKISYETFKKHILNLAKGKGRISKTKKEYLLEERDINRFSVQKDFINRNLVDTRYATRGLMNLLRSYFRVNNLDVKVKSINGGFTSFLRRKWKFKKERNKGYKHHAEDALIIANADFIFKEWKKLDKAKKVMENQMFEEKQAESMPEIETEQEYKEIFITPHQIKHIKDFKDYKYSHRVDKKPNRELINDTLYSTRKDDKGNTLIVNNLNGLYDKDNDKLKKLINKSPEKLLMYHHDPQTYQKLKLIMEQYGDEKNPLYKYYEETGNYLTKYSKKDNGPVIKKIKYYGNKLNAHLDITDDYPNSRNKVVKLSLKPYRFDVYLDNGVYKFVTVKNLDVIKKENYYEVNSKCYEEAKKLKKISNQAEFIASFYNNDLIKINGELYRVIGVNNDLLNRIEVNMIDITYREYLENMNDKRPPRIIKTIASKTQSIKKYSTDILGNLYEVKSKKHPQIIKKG
Experiment: Strand displacement assay, SaCas9 primary screen
Type: biochemical
Conditions: for Auto Zscore Rep 1 / Auto Zscore Rep 2 / Normalized Zscore Rep 1 / Normalized Zscore Rep 2: SaCas9 primary screen; for Auto Zscore Rep 1 / Normalized Zscore Rep 1: replicate 1; for Auto Zscore Rep 2 / Normalized Zscore Rep 2: replicate 2; for Normalized Zscore Rep 1 / Normalized Zscore Rep 2: weaker potential hits; for 3 sigma Hit: flag 1 = hit at 3 sigma; for 5 sigma Hit: flag 1 = hit at 5 sigma
Summary of the method: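 Cas9 RNP (1:1.2 protein:gRNA) pre-formed in 20 mM Tris-HCl pH 7.5, 100 mM KCl, 5 mM MgCl2, used at 10 nM (2× stock) with Alexa-Fluor 647 substrate/quencher at 1 nM/5 nM (2× stock). Reaction ran 2.5 h at 37°C; strand displacement read as fluorescence. Hits called by Z-score: 3–5σ weak, >5σ strong.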

Compound | Auto Zscore Rep 1 | Auto Zscore Rep 2 | Normalized Zscore Rep 1 | Normalized Zscore Rep 2 | 3 sigma Hit | 5 sigma Hit
c1ccc(Cc2nn3c(-c4cccnc4)nnc3s2)cc1 [Compound D727-0066] | 0.2456 | 1.309 | 0.1917 | 0.2236 | 1 | 1
Cc1nc2ccccc2n1Cc1nnc2n1N=C(N)CS2 [Compound D727-0339] | −1.123 | −1.939 | 0.1478 | 0.2051 | 1 | –
Cc1ccccc1OCc1nn2c(C(C)C)nnc2s1 [Compound D727-0350] | −0.2032 | 0.9814 | 0.2025 | 0.2065 | 1 | 1
Cc1ccccc1OCc1nn2c(C(C)(C)C)nnc2s1 [Compound D727-0351] | −0.02144 | −0.3042 | 0.2896 | 0.3227 | 1 | 1
Brc1ccc(OCc2nn3c(-c4ccccn4)nnc3s2)cc1 [Compound D727-0522] | 1.021 | 0.5297 | 0.3471 | 0.3776 | 1 | 1
Fc1ccc(OCc2nn3c(-c4ccccn4)nnc3s2)cc1 [Compound D727-0525] | 0.9393 | 1.066 | 0.3566 | 0.3426 | 1 | 1
NC(=O)c1c(NC(=O)COCc2cc(-c3ccc4c(c3)OCO4)on2)sc2c1CCCC2 [Compound E613-0091] | −0.4678 | −1.998 | 0.1515 | 0.3604 | 1 | –
NS(=O)(=O)c1ccc(CCNC(=O)C2=Cc3sc4c(c3CS2)CCCC4)cc1 [Compound E722-2588] | 0.2247 | −0.3407 | 0.2746 | 0.2871 | 1 | 1
NC(=O)c1sc(=S)n2c1[nH]c(=O)c1ccc(Cl)cc12 [Compound F083-0067] | −0.5214 | 0.84 | 0.2245 | 0.2068 | 1 | 1
CCCN1CCN(c2ccc(C(=O)O)cc2NC(=O)c2ccccc2Cl)CC1 [Compound F086-0004] | −1.483 | 1.076 | 0.2725 | 0.2108 | 1 | 1
CC(C)NC(=O)CN1CCN(c2ccc(C(=O)O)cc2NC(=O)c2ccccc2Cl)CC1 [Compound F086-0028] | −0.07719 | 0.5847 | 0.2467 | 0.2295 | 1 | 1
COCCCNC(=O)CN1CCN(c2ccc(C(=O)O)cc2NC(=O)c2ccccc2Cl)CC1 [Compound F086-0033] | −0.0657 | −0.1907 | 0.1937 | 0.2246 | 1 | 1
O=C(O)c1ccc(N2CCN(c3ccccn3)CC2)c(NC(=O)c2ccc(Br)cc2)c1 [Compound F086-0619] | 1.213 | 0.1224 | 0.2335 | 0.1451 | 1 | 1
Nc1c(C(=O)N2CCCC2)sc(=S)n1Cc1ccccc1 [Compound F128-0041] | 1.188 | −1.115 | 0.3576 | 0.3845 | 1 | 1
Nc1c(C(=O)N2CCCCC2)sc(=S)n1Cc1ccccc1 [Compound F128-0042] | −0.3436 | 0.3038 | 0.2801 | 0.2612 | 1 | 1
Nc1c(C(=O)NCC2CCCO2)sc(=S)n1-c1ccc(Cl)cc1 (centres unmarked) [Compound F128-0076] | −0.6285 | −1.451 | 0.3168 | 0.2064 | 1 | 1
CS(=O)(=O)Nc1cnc(N2CCC(C(N)=O)(N3CCCCC3)CC2)c(C(=O)O)c1 [Compound F293-0183] | 1.533 | −0.4148 | 0.2879 | 0.3283 | 1 | 1
O=C(O)c1cc(NS(=O)(=O)c2cc(F)ccc2F)cnc1N1CCC(N2CCCCC2)CC1 [Compound F293-0616] | −0.1879 | −0.1846 | 0.1887 | 0.1788 | 1 | –
CS(=O)(=O)Nc1cnc(N2CCC(CCN3CCOCC3)CC2)c(C(=O)O)c1 [Compound F293-0898] | 0.3628 | 0.2374 | 0.3858 | 0.277 | 1 | 1
CN(C)S(=O)(=O)Nc1cnc(N2CCC(CCN3CCCCC3)CC2)c(C(=O)O)c1 [Compound F293-0962] | −1.575 | −1.36 | 0.2533 | 0.277 | 1 | 1
CCN(Cc1ccccc1)c1ccc(NS(=O)(=O)c2ccc(OC)cc2)cc1C(=O)O [Compound F294-0003] | 0.9297 | −1.427 | 0.2547 | 0.2729 | 1 | 1
CN(C)S(=O)(=O)Nc1ccc(N2CCC(C(N)=O)(N3CCCCC3)CC2)c(C(=O)O)c1 [Compound F294-0183] | −1.66 | −0.5827 | 0.1624 | 0.2442 | 1 | –
CN(C)S(=O)(=O)Nc1ccc(N2CCC(CCN3CCOCC3)CC2)c(C(=O)O)c1 [Compound F294-0900] | −2.121 | 0.2518 | 0.2307 | 0.229 | 1 | 1
CN(C)S(=O)(=O)Nc1ccc(N2CCCC(CN3CCCC3)C2)c(C(=O)O)c1 (centres unmarked) [Compound F294-0983] | −0.3877 | −0.5875 | 0.2894 | 0.2577 | 1 | 1
